Where only a bound is given, the exact number is not on record here.

The source of these data is patent publication US20250171437A1 (Agios Pharmaceuticals,Inc., priority 2022, published 2025).

The target of the first test is T1, human PAH with the R408W mutation (A375 R408W cells) (Homo sapiens, UniProt P00439, R408W).
T1 construct: expressed in transfected cells
T1 sequence (P00439 1-452 R408W): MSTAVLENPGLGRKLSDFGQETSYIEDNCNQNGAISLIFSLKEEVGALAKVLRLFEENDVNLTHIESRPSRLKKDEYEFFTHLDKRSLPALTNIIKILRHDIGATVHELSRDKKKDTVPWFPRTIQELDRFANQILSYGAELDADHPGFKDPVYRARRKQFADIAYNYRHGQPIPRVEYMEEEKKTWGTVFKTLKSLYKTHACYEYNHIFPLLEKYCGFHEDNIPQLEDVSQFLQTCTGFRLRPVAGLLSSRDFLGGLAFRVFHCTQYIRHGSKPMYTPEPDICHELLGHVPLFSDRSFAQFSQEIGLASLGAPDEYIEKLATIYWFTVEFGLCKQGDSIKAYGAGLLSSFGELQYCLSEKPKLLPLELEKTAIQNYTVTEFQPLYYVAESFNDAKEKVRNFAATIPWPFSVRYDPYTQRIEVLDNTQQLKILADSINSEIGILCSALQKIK
The test can be described thus: Cell Based Phenylalanine Flux Assay. Particulars: A375 R408W cells; 24 hrs with compound, then 20 μM sepiapterin and 800 μM 13C9,15N-Phenylalanine for 4 hours; 13C-Tyrosine by LC-MS; average where tested multiple times. In outline:
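LC-MS quantitation of 13C-tyrosine in media gave AC50 values. Stable A375 R408W PAH cells were preincubated 24 h with compound, then fed 800 μM labelled Phe plus 20 μM sepiapterin for 4 h. Dose curves were 10-point, tested in duplicate, averaged over repeat runs.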
In the case of `COc1ccc2c(C(=O)N3CCc4[nH]cnc4[C@@H]3c3nc4c(F)cccc4o3)cnn2c1` [Example 540, (R)-(4-(4-fluorobenzo[d]oxazol-2-yl)-6,7-dihydro-1H-imidazo[4,5-c]pyridin-5(4H)-yl)(6-methoxypyrazolo[1,5-a]pyridin-3-yl)methanone], the AC50 fell in the range of 1 to 5 µM.
The same measure, in the same setting: the result for `O=C(c1nnc(-c2cnn(C3CCC3)c2)o1)N1CCc2[nH]cnc2[C@H]1c1nc2c(F)ccc(F)c2o1` [Example 811, (S)-(5-(1-cyclobutyl-1H-pyrazol-4-yl)-1,3,4-oxadiazol-2-yl)(4-(4,7-difluorobenzo[d]oxazol-2-yl)-6,7-dihydro-1H-imidazo[4,5-c]pyridin-5(4H)-yl)methanone] reads no more than 0.5 µM.
Take `Cn1ccc(-c2nnc(C(=O)N3CCc4[nH]cnc4[C@@H]3c3nc4cc(F)ccc4o3)o2)n1` [Example 105, (R)-(4-(5-fluorobenzo[d]oxazol-2-yl)-6,7-dihydro-1H-imidazo[4,5-c]pyridin-5(4H)-yl)(5-(1-methyl-1H-pyrazol-3-yl)-1,3,4-oxadiazol-2-yl)methanone]: the AC50 is 1 to 5 µM.
Same read-out and setting: the value for `O=C(c1oc(-c2ccc(F)cn2)nc1C(F)F)N1CCc2[nH]cnc2[C@@H]1c1nc2cccc(F)c2o1` [Example 631, (R)-(4-(difluoromethyl)-2-(5-fluoropyridin-2-yl)oxazol-5-yl)(4-(7-fluorobenzo[d]oxazol-2-yl)-6,7-dihydro-1H-imidazo[4,5-c]pyridin-5(4H)-yl)methanone] was no more than 0.5 µM; that for `O=C(c1cnn2cc(Br)c(Cl)cc12)N1CCc2[nH]cnc2[C@H]1c1nc2cc(F)ccc2o1` [Example 165, (S)-(6-bromo-5-chloropyrazolo[1,5-a]pyridin-3-yl)(4-(5-fluorobenzo[d]oxazol-2-yl)-6,7-dihydro-1H-imidazo[4,5-c]pyridin-5(4H)-yl)methanone] was no more than 0.5 µM.
Still for that read-out and setting: the result for `O=C(c1cnn2cc(N3CCC(O)CC3)ccc12)N1CCc2[nH]cnc2[C@H]1c1nc2cccc(F)c2o1` [Example 371, (S)-(4-(7-fluorobenzo[d]oxazol-2-yl)-6,7-dihydro-1H-imidazo[4,5-c]pyridin-5(4H)-yl)(6-(4-hydroxypiperidin-1-yl)pyrazolo[1,5-a]pyridin-3-yl)methanone] reads 0.5 to 1 µM.
Same read-out and setting: the value for `O=C(c1oc(-c2ccncc2)nc1C(F)F)N1CCc2[nH]cnc2[C@@H]1c1nc2cc(F)ccc2o1` [Example 422, (R)-(4-(difluoromethyl)-2-(pyridin-4-yl)oxazol-5-yl)(4-(5-fluorobenzo[d]oxazol-2-yl)-6,7-dihydro-1H-imidazo[4,5-c]pyridin-5(4H)-yl)methanone] was 0.5 to 1 µM; that for `CC(C)(O)c1nc(Br)c(C(=O)N2CCc3[nH]cnc3[C@@H]2c2nc3ccc(F)cc3o2)o1` [Example 250, (R)-(4-bromo-2-(2-hydroxypropan-2-yl)oxazol-5-yl)(4-(6-fluorobenzo[d]oxazol-2-yl)-6,7-dihydro-1H-imidazo[4,5-c]pyridin-5(4H)-yl)methanone] was no less than 5 µM; that for `Cc1ccc2oc([C@H]3c4nc[nH]c4CCN3C(=O)c3nnc(-c4ncccc4F)o3)nc2c1` [Example 654, (R)-(5-(3-fluoropyridin-2-yl)-1,3,4-oxadiazol-2-yl)(4-(5-methylbenzo[d]oxazol-2-yl)-6,7-dihydro-1H-imidazo[4,5-c]pyridin-5(4H)-yl)methanone] was 1 to 5 µM.
Regarding `O=C(c1cnn2cc(-c3ccccn3)ccc12)N1CCc2[nH]cnc2[C@@H]1c1nc2cc(F)ccc2o1` [Example 82, (R)-(4-(5-fluorobenzo[d]oxazol-2-yl)-6,7-dihydro-1H-imidazo[4,5-c]pyridin-5(4H)-yl)(6-(pyridin-2-yl)pyrazolo[1,5-a]pyridin-3-yl)methanone], the AC50 was no less than 5 µM.
On the same count and under the same terms, the value for `O=C(CCc1nccs1)N1CCc2[nH]cnc2[C@@H]1c1nc2c(F)cccc2o1` [Example 398, (R)-1-(4-(4-fluorobenzo[d]oxazol-2-yl)-6,7-dihydro-1H-imidazo[4,5-c]pyridin-5(4H)-yl)-3-(thiazol-2-yl)propan-1-one] was no less than 5 µM.
The same measure, in the same setting: the result for `Cc1ccc(C)c2oc([C@@H]3c4nc[nH]c4CCN3C(=O)c3oc(C(C)(C)O)nc3C(F)F)nc12` [Example 659, (S)-(4-(difluoromethyl)-2-(2-hydroxypropan-2-yl)oxazol-5-yl)(4-(4,7-dimethylbenzo[d]oxazol-2-yl)-6,7-dihydro-1H-imidazo[4,5-c]pyridin-5(4H)-yl)methanone] reads no more than 0.5 µM.
Still for that read-out and setting: the value for `O=C(c1oc(N2CCC(F)CC2)nc1C(F)F)N1CCc2[nH]cnc2[C@H]1c1nc2cc(F)ccc2o1` [Example 401, (S)-(4-(difluoromethyl)-2-(4-fluoropiperidin-1-yl)oxazol-5-yl)(4-(5-fluorobenzo[d]oxazol-2-yl)-6,7-dihydro-1H-imidazo[4,5-c]pyridin-5(4H)-yl)methanone] was no more than 0.5 µM.
On to `O=C(c1ccnn1C(F)F)N1CCc2[nH]cnc2[C@H]1c1nc2cccc(F)c2o1` [Example 195, (S)-(1-(difluoromethyl)-1H-pyrazol-5-yl)(4-(7-fluorobenzo[d]oxazol-2-yl)-6,7-dihydro-1H-imidazo[4,5-c]pyridin-5(4H)-yl)methanone], for which the AC50 was no more than 0.5 µM.
On the same count and under the same terms, the value for `CN1CCN(c2ccc3c(C(=O)N4CCc5[nH]cnc5[C@H]4c4nc5cc(F)ccc5o4)cnn3c2)CC1` [Example 65, (S)-(4-(5-fluorobenzo[d]oxazol-2-yl)-6,7-dihydro-1H-imidazo[4,5-c]pyridin-5(4H)-yl)(6-(4-methylpiperazin-1-yl)pyrazolo[1,5-a]pyridin-3-yl)methanone] was 1 to 5 µM; that for `Cn1cnc(-c2nc(C(F)(F)F)c(C(=O)N3CCc4[nH]cnc4[C@H]3c3nc4cc(F)ccc4o3)o2)c1` [Example 790, (S)-(4-(5-fluorobenzo[d]oxazol-2-yl)-6,7-dihydro-1H-imidazo[4,5-c]pyridin-5(4H)-yl)(2-(1-methyl-1H-imidazol-4-yl)-4-(trifluoromethyl)oxazol-5-yl)methanone] was 0.5 to 1 µM.
On the same count and under the same terms, the value for `O=C(c1nnc(-c2c(F)cccc2F)o1)N1CCc2[nH]cnc2[C@@H]1c1nc2cc(F)ccc2o1` [Example 26, (R)-(5-(2,6-difluorophenyl)-1,3,4-oxadiazol-2-yl)(4-(5-fluorobenzo[d]oxazol-2-yl)-6,7-dihydro-1H-imidazo[4,5-c]pyridin-5(4H)-yl)methanone] was 0.5 to 1 µM; that for `Cc1ccc2nc([C@H]3c4nc[nH]c4CCN3C(=O)c3oc(C(C)(C)O)nc3Br)oc2c1` [Example 440, (R)-(4-bromo-2-(2-hydroxypropan-2-yl)oxazol-5-yl)(4-(6-methylbenzo[d]oxazol-2-yl)-6,7-dihydro-1H-imidazo[4,5-c]pyridin-5(4H)-yl)methanone] was 1 to 5 µM.
Same read-out and setting: the result for `CC1CN(C(=O)c2ocnc2C(F)F)[C@@H](c2nc3cccc(F)c3o2)c2nc[nH]c21` (single isomer, unassigned) [Example 805] reads 1 to 5 µM.
For the molecule `O=C(c1nnc(-c2ncccc2F)o1)N1CCc2[nH]cnc2[C@@H]1c1nc2cccc(C(F)(F)F)c2o1` [Example 839, (R)-(5-(3-fluoropyridin-2-yl)-1,3,4-oxadiazol-2-yl)(4-(7-(trifluoromethyl)benzo[d]oxazol-2-yl)-6,7-dihydro-1H-imidazo[4,5-c]pyridin-5(4H)-yl)methanone], the AC50 is 0.5 to 1 µM.
Same read-out and setting: the value for `CC(C)(O)c1nc(C(F)F)c(C(=O)N2CCc3[nH]cnc3[C@@H]2c2nc3cccc(F)c3o2)o1` [Example 194, (R)-(4-(difluoromethyl)-2-(2-hydroxypropan-2-yl)oxazol-5-yl)(4-(7-fluorobenzo[d]oxazol-2-yl)-6,7-dihydro-1H-imidazo[4,5-c]pyridin-5(4H)-yl)methanone] was no more than 0.5 µM.

The test is the same for the next values; noted with them: A375 cells expressing R408W PAH; 24 hrs with compound, then 20 μM sepiapterin and 800 μM 13C9,15N-Phenylalanine for 4 hours; 13C-Tyrosine by LC-MS; average where tested multiple times.
As for `O=C(c1nncn1C1CC1)N1CCc2[nH]cnc2C1c1nc2cc(F)ccc2o1` (stereo not shown), the AC50 is no less than 5 µM.
As to `Cn1cnc(-c2nnc(C(=O)N3CCc4[nH]cnc4C3c3nc4cccc(C(F)(F)F)c4o3)o2)c1` (stereo not shown), the AC50 is 1 to 5 µM.
Still for that read-out and setting: the result for `Cn1cncc1-c1nnc(C(=O)N2CCc3[nH]cnc3C2c2nc3cccc(C(F)(F)F)c3o2)o1` (stereo not shown) reads 1 to 5 µM; that for `O=C(c1cnn2cc(N3CCC4(CC3)CC4)ccc12)N1CCc2[nH]cnc2C1c1nc2cc(F)ccc2o1` (stereo not shown), 1 to 5 µM.
The same measure, in the same setting: the result for `CN1C2CCC1CN(c1ccc3c(C(=O)N4CCc5[nH]cnc5C4c4nc5cc(F)ccc5o4)cnn3c1)C2` (single isomer, unassigned) reads no less than 5 µM; that for `O=C(c1cnn2cc(CCN3CC(F)C3)ccc12)N1CCc2[nH]cnc2C1c1nc2cc(F)ccc2o1` (stereo not shown), 1 to 5 µM.
Same read-out and setting: the result for `COCc1ncc(C(=O)N2CCc3[nH]cnc3C2c2nc3cc(F)ccc3o2)s1` (stereo not shown) reads 1 to 5 µM.
With `Cc1nc(C(C)(C)N(C)C)oc1C(=O)N1CCc2[nH]cnc2C1c1nc2cc(F)ccc2o1` (stereo not shown), the AC50 lay within 1 to 5 µM.
Same read-out and setting: the result for `Cc1ccc2oc(C3c4nc[nH]c4CCN3C(=O)c3cnn4cc(CN(C)C)ccc34)nc2c1` (stereo not shown) reads 1 to 5 µM.
As for `CC(C)(O)c1noc(C(=O)N2CCc3[nH]cnc3C2c2nc3c(F)cccc3o2)n1` (stereo not shown), the concentration at half-maximal activity (AC50) is no less than 5 µM.

By AC50 is commonly meant the concentration at which the activity in the assay is half-maximal.
